Source: PMC6024615, “Effect of Biliary Drainage on the Toxicity and Toxicokinetics of Amanita exitialis in Beagles” (Toxins, 2018)
Read-outs that look alike come from different tables or passages of the source. *1 amine or outer side, *2 acyl side, *3 side chain or, on linkers, in order; H or OH if unused. Where a SMILES comes first, the peptide text is derived from it. Bridges are numbered along the chain shown (N, C = ends). [ ]: non-standard residue; d: D form. Trp(2-yl) = O=C([C@H](Cc1c([*:3])[nH]c2ccccc12)N[*:1])[*:2]; Leu(4R-OH,5-OH) = C[C@](O)(CO)C[C@H](N)C(=O)O; dAsp(3S-OH) = N[C@@H](C(=O)O)[C@H](O)C(=O)O; cisHyp = O=C(O)[C@@H]1C[C@H](O)CN1

Columns and labels:
[1] = cited from earlier work
Description: The difference in detectable time in the urine can be explained by the low level of internal exposure (amatoxins in the blood). […] The daily amounts of peptide toxins excreted in urine in beagles without biliary drainage(mg). Time after α-Amanitin β-Amanitin Phallacidin ingestion 20 mg/kg 60 mg/kg 20 mg/kg 60 mg/kg 20 mg/kg 60 mg/kg group group group group group group 0-1d 0.0379 0.0593 0.0156 0.0251 0.0035 0.0088 (97.9%) (92.8%) (99.9%) (94.7%) (94.2%) (76%) 1-2d 0.0388 0.0618 0.01567 0.0255 0.0037 0.0110 (99.995%) (97.5%) (100%) (96.2%) (100%) (93%) 2-3d 0.0002 0.0626 0 0.0260 0 0.0115 (100%) (99.4%) (100%) (98.2%) (100%) (97.3%) 3-4d 0 0.063 ...

[2] = Peptide toxins in the bile of beagles with biliary drainage; assay type: in vivo, beagle dogs; settings: for Accumulated amounts excreted in bile / percentage of total bile excretion, Accumulated amounts: 0–4 days
Description: The study was approved by National Institute of Occupational Health and Poison Control review board for animal experiments. Twenty-four male beagles (age, 8–10 months; weight, 10 ± 1 kg) were obtained from Beijing Institute of Xieerxin Biology Resource (Beijing, China). They were randomly divided into four groups of six animals each: control, biliary drainage, and 20 and 60 mg/kg with biliary drainage groups. The biliary drainage operation was conducted in all groups barring the control group. The dogs were dressed in homemade underwear, coats, and Elizabeth circles for a week to ensure pre-experimental acclimatization (Figure S8a–c). After determining the baseline values for biochemical indicators, the dogs were fasted for 24 h but received water ad libitum. They were anesthetized by intravenous administration of pentobarbital sodium (3%, 1 mL/kg) during the surgery. A temperature of 38–39 °C was maintained with a warming mat. After skin preservation and sterilization, the abdominal cavity was opened through the central abdomen. The abdomen was explored and blunt dissection of the common bile duct was performed (Figure S8d). The common bile duct and its branches were ligated from the intestinal side. A 7.0-Fr drainage catheter (COOK, Bloomington, IN, USA) was percutaneously inserted into the gallbladder, and a medical drainage bag was connected to the drainage catheter coming out of the abdominal cavity. Each opened layer, including the peritoneum, abdominal wall muscle, and skin, was closed with suture. The operative incision was protected with sterile gauze and a bandage, and the dogs were dressed in homemade underwear, coats, and Elizabeth circles. The drainage bag was placed in the pocket of the coat (Figure S8e). After the anesthetic wore off, the dogs were placed in cages, and food and water were provided ad libitum. The operative incision was sterilized with iodophor twice a day until stitches were removed six days after surgery. The drainage bag was replaced every day. On the eighth day after surgery, the 20 and 60 mg/kg with biliary drainage groups were orally administered a lyophilized powder of Amanita exitialis in starch capsules. In control and bile drainage group, the beagle dogs were fed with empty capsules. Immediately after dosing, the animals were placed in their cages, and food and water were provided ad libitum. Dogs were sacrificed with an overdose of sodium pentobarbital at the end of the experiment. All procedures were performed according to the ethical standards of the National Institutes of Health Guide for Animal Welfare and approved by the Institutional Animal Care and Use Committee (EAWE-2017-005).
Peptide toxins in blood and urine samples were analyzed as described previously. Bile samples from Days 0–1, Days 1–2, Days 2–3, and Days 3–4 were collected and stored in medical drainage bags and the bile volume was recorded. Plasma and urine samples were stored at 2–8 °C until analysis for peptide toxins.
α-Amanitin, β-amanitin, γ-amanitin, and phallacidin were used as the standard reference materials. Aliquots (0.2 mL) of bile samples were transferred into 2-mL polypropylene centrifuge tubes in duplicates. Next, 1 mL of acetonitrile was added to each tube. After vortex-mixing for 1 min, each sample was sonicated for 30 min and centrifuged at 11,200× g for 10 min at 4 °C. The supernatants were loaded on solid-phase extraction columns (Oasis PRiME HLB, 60 mg, 3 cc). The columns were then washed with 3 mL of methanol/ultrapure water (v/v: 5/95). The eluent was evaporated in a stream of nitrogen at room temperature. The dry residue was dissolved in 0.2 mL of ultrapure water and analyzed by UPLC-ESI-MS/MS.
UPLC and MS/MS parameters were as described in our previous study. The limit of detection and limit of quantitation of each toxin in the bile were 0.03 mg/kg and 0.5 mg/kg, respectively.

[3] = 0–1 days, 20 mg/kg with biliary drainage group
[4] = 0–1 days, 60 mg/kg with biliary drainage group
[5] = 20 mg/kg with biliary drainage group
[6] = 1-2 d, 20 mg/kg with biliary drainage group
[7] = 1–2 days, 20 mg/kg with biliary drainage group
[8] = 1–2 days, 60 mg/kg with biliary drainage group
[9] = 2-3 d, 20 mg/kg with biliary drainage group
[10] = 2-3 d, 60 mg/kg with biliary drainage group
[11] = 2–3 days, 20 mg/kg with biliary drainage group
[12] = 2–3 days, 60 mg/kg with biliary drainage group
[13] = 3-4d, 20 mg/kg with biliary drainage group
[14] = 3-4d, 60 mg/kg with biliary drainage group
[15] = 3–4 days, 20 mg/kg with biliary drainage group
[16] = 3–4 days, 60 mg/kg with biliary drainage group

SMILES: CC(C)[C@@H]1NC(=O)[C@H](C[C@@](C)(O)CO)NC(=O)[C@@H]2Cc3c([nH]c4ccccc34)SC[C@H](NC(=O)[C@@H]([C@H](O)C(=O)O)NC1=O)C(=O)N1C[C@@H](O)C[C@H]1C(=O)N[C@@H](C)C(=O)N2 [phallacidin] (cyclo(A[Trp(2-yl)][Leu(4R-OH,5-OH)]V[dAsp(3S-OH)]C[cisHyp]); thioether 2-6)
- daily amount excreted in urine, without biliary drainage ([1]; 0-1d, 20 mg/kg group): 0.0035 mg
- percentage in parentheses, urine, without biliary drainage ([1]; 0-1d, 20 mg/kg group): 94.2%
- daily amount excreted in urine, without biliary drainage ([1]; 0-1d, 60 mg/kg group): 0.0088 mg
- percentage in parentheses, urine, without biliary drainage ([1]; 0-1d, 60 mg/kg group): 76%
- Accumulative amount excreted in urine, without biliary drainage ([1]; 20 mg/kg group): 0.0037 mg
- percentage in parentheses, Accumulative amount, urine, without biliary drainage ([1]; 20 mg/kg group): 100%
- percentage in parentheses, Accumulative amount, urine, without biliary drainage ([1]; 60 mg/kg group): 100%
- percentage in parentheses, urine, without biliary drainage ([1]; 1-2d, 20 mg/kg group): 100%
- daily amount excreted in urine, without biliary drainage ([1]; 1-2d, 60 mg/kg group): 0.0110 mg
- percentage in parentheses, urine, without biliary drainage ([1]; 1-2d, 60 mg/kg group): 93%
- daily amount excreted in urine, without biliary drainage ([1]; 2-3d, 20 mg/kg group): 0 mg
- percentage in parentheses, urine, without biliary drainage ([1]; 2-3d, 20 mg/kg group): 100%
- daily amount excreted in urine, without biliary drainage ([1]; 2-3d, 60 mg/kg group): 0.0115 mg
- percentage in parentheses, urine, without biliary drainage ([1]; 2-3d, 60 mg/kg group): 97.3%
- daily amount excreted in urine, without biliary drainage ([1]; 3-4d, 20 mg/kg group): 0 mg
- percentage in parentheses, urine, without biliary drainage ([1]; 3-4d, 20 mg/kg group): 100%
- daily amount excreted in urine, without biliary drainage ([1]; 3-4d, 60 mg/kg group): 0.0118 mg
- percentage in parentheses, urine, without biliary drainage ([1]; 3-4d, 60 mg/kg group): 100%
- detection rate of peptide toxins in bile ([2]; 0-1 d, 20 mg/kg with biliary drainage group): 83%
- toxin concentration in bile ([2]; 0-1d, 20 mg/kg with biliary drainage group, mean ± SD): 0 µg/L
- detection rate of peptide toxins in bile ([2]; 0-1 d, 60 mg/kg with biliary drainage group): 83%
- daily amount excreted in bile [2, 3]: 0.00005 mg
- percentage of total bile excretion excreted daily [2, 3]: 100%
- daily amount excreted in bile [2, 4]: 0.0002 mg
- percentage of total bile excretion excreted daily [2, 4]: 81.7%
- Accumulated amounts excreted in bile [2, 5]: 0.00005 mg
- percentage of total bile excretion, Accumulated amounts [2, 5]: 100%
- percentage of total bile excretion, Accumulated amounts ([2]; 60 mg/kg with biliary drainage group): 100%
- Accumulated amounts excreted in bile ([2]; 60 mg/kg with biliary drainage group, 60 mg/kg): 0.00024 mg
- ratio of peptide toxins in bile to excretion in urine and bile ([2]; 20 mg/kg with biliary drainage group, mean ± SD): less than 10%
- ratio of peptide toxins in bile to excretion in urine and bile ([2]; 20 mg/kg with biliary drainage group, mean ± SD, listed as Phallacidin): 4.8 ± 5.7%
- ratio of peptide toxins in bile to excretion in urine and bile ([2]; 60 mg/kg with biliary drainage group, mean ± SD): less than 20%
- ratio of peptide toxins in bile to excretion in urine and bile ([2]; 60 mg/kg with biliary drainage group, mean ± SD, listed as Phallacidin): 9.4 ± 6.4%
- detection rate of peptide toxins in bile [2, 6]: 0%
- toxin concentration in bile [2, 6]: 0 µg/L
- detection rate of peptide toxins in bile ([2]; 1-2 d, 60 mg/kg with biliary drainage group): 75%
- daily amount excreted in bile [2, 7]: 0(0%) mg
- percentage of total bile excretion excreted daily [2, 7]: 0(0%)
- daily amount excreted in bile [2, 8]: 0.00004 mg
- percentage of total bile excretion excreted daily [2, 8]: 18.3%
- detection rate of peptide toxins in bile [2, 9]: 0%
- toxin concentration in bile [2, 9]: 0 µg/L
- detection rate of peptide toxins in bile [2, 10]: 0%
- toxin concentration in bile [2, 10]: 0 µg/L
- daily amount excreted in bile [2, 11]: 0(0%) mg
- percentage of total bile excretion excreted daily [2, 11]: 0(0%)
- daily amount excreted in bile [2, 12]: 0(0%) mg
- percentage of total bile excretion excreted daily [2, 12]: 0(0%)
- detection rate of peptide toxins in bile [2, 13]: 0%
- toxin concentration in bile [2, 13]: 0 µg/L
- detection rate of peptide toxins in bile [2, 14]: 0%
- toxin concentration in bile [2, 14]: 0 µg/L
- daily amount excreted in bile [2, 15]: 0(0%) mg
- percentage of total bile excretion excreted daily [2, 15]: 0(0%)
- daily amount excreted in bile [2, 16]: 0(0%) mg
- percentage of total bile excretion excreted daily [2, 16]: 0(0%)
